Source: patent US9597364B2, “Treatment of withdrawal symptoms to aid in nicotine use cessation with Passiflora incarnata” (Campbell University, priority 2011, dated 2017)

Columns and labels:
Male Wistar rats [1] = conditions: 0.4 mg/kg nicotine s.c.
Procedure: Male Wistar rats (Charles River, Raleigh, N.C.) were provided with food and water ad libitum on a 12 hour light/dark cycle for 2-3 weeks before beginning any treatments. For all experiments, rats were approximately 45-65 days old and weighed between 148 and 195 g at the beginning of an experiment. Injections of nicotine or its vehicle (water) were subcutaneous (s.c.) administered at 0.4 mg/kg nicotine (Sigma Aldrich, St. Louis, Mo.) and 2 ml/kg. Injections of aqueous passion flower extract (Nature's Answer, Hauppage, N.Y.) or vehicle (1:1 glycerin:water) were intraperitoneal (i.p.) administered at 800 mg/kg and 0.16 ml/kg.
Drug-naive rats were placed individually in an open field for determination of spontaneous activity using the Limelight video tracking system (ActiMetrics, Wilmette, Ill.). Each rat was monitored in the open field for 30 minutes to determine the time course of habituation. Immediately afterward, each rat was injected with vehicle that was subsequently used for nicotine injection at 2 ml/kg and the rats were monitored for 50 minutes. Then each rat was removed from the chamber briefly to be injected s.c. with 0.4 mg/kg nicotine and monitored for another 90 minutes.
Mean velocity (in cm/s) over each 1 sec period was extracted using the LimeLight software and that data was used to calculate the average and SEM of the mean velocities for each 5 minute interval for each treatment group. Figures show the time at the end of the 5 minute period (e.g., 10 minutes is the 5-10 minute interval). In the preliminary assay of nicotine versus vehicle, there were 6 rats and in the chronic nicotine study there were 8-10 rats in each group.

Male Wistar rats [2] = assay: Effect of passion flower extract on nicotine sensitization (expression of motor sensitization, open field); format: in vivo, rat; conditions: 0.4 mg/kg s.c. nicotine days 1-4, challenge day 5
Procedure: To produce nicotine sensitization, rats were injected once/day for 4 consecutive days with either nicotine or vehicle. On day 5, known as the test day, rats were divided into four groups; half of those that had received vehicle on days 1-4 were pre-treated with passion flower extract (vehicle-passion flower group) and the other half with vehicle (vehicle-vehicle group). Analogously, half of the rats that received nicotine on days 1-4 received a pre-treatment of i.p. 1:1 water:glycerin (nicotine-vehicle group) on day 5, while the other half was given a pre-treatment of i.p. passion flower extract (nicotine-passionflower group). Each rat was monitored in the open field for 100 consecutive minutes, starting approximately 23 hours after the day 4 nicotine treatment. Before any injections on day 5, rats were placed in the activity chambers until an injection of passion flower extract or vehicle at 25 minutes, then monitored for another 25 minutes, at which point all rats received an injection of nicotine and were monitored for 50 additional minutes.

CN1CCCC1c1cccnc1 (stereo not shown) [nicotine]
time of peak activity after injection (Male Wistar rats [1]): 5 to 15 min
activity compared with vehicle treatment (Male Wistar rats [1]; intervals between 10 and 35 minutes except 15-20 minutes, 2-way ANOVA, Bonferroni p<0.05): significantly different from vehicle treatment
spontaneous activity (velocity) during the 10-35 minute intervals, average (Male Wistar rats [1]; vehicle average 0.8±0.1 cm/s): 1.9±0.2 cm/s
activity of nicotine-sensitized group (nicotine-vehicle) after challenge dose of nicotine, compared with vehicle-vehicle group (Male Wistar rats [2]): significantly greater activity than the vehicle-vehicle group
